From patent US20240190880A1 (THE REGENTS OF THE UNIVERSITY OF MICHIGAN, priority 2021, published 2024)

biological target: T1, ER (Homo sapiens, UniProt P03372); assay: ER degradation activity, in-cell western blot analysis in T47D cells; format: cell-based; conditions: 16 hours, Table A does not say which cell line (T47D or MCF7), read-out: Potency (DC50)
T1 construct: host or cells: T47D and MCF7 human breast cancer cells
T1 sequence (P03372 1-595): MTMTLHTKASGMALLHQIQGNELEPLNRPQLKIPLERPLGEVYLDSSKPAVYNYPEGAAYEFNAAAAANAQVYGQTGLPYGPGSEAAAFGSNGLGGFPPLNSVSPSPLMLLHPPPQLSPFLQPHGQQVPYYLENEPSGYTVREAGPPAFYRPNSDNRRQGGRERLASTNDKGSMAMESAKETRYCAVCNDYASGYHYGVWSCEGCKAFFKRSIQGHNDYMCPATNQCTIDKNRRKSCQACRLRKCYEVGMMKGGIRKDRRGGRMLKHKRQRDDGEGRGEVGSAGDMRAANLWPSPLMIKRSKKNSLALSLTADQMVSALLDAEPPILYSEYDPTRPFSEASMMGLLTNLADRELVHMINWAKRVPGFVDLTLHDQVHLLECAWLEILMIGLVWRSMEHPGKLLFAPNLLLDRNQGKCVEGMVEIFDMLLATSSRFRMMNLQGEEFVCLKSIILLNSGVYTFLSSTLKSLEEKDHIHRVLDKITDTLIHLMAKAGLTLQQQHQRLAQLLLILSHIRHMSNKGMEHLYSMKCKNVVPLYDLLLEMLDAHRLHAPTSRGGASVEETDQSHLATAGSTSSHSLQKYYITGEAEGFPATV
Procedure, shortened: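 T47D cells cultured in DMEM with 10% FBS, treated with compounds (final 0.5% DMSO) for 16 h. ER level measured by in-cell western with anti-rabbit-680/anti-mouse-800 near-infrared detection. Relative ER percentage calculated against untreated and DMSO-treated wells set as 100%.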

Row | Compound | DC50 [nM]
1 | C[C@@H]1Cc2c([nH]c3ccccc23)[C@@H](c2c(F)cc(C3CCC(CN4CC(CN5Cc6cc7c(cc6C5)C(=O)N(C5CCC(=O)NC5=O)C7=O)C4)CC3)cc2F)N1CC(F)F (stereo partly drawn) [E 283, 6-((1-((4-(4-((1R,3R)-2-(2,2-difluoroethyl)-3-methyl-2,3,4,9-tetrahydro-1H-pyrido[3,4-b]indol-1-yl)-3,5-difluorophenyl)cyclohexyl)methyl)azetidin-3-yl)methyl)-2-(2,6-dioxopiperidin-3-yl)-6,7-dihydropyrrolo[3,4-f]isoindole-1,3(2H,5H)-dione] | > 100
2 | O=C1CCC(N2Cc3cc4c(cc3C2=O)CN(C(=O)C2CCN(CC3CCN(c5ccc([C@@H]6c7ccc(O)cc7CC[C@@H]6c6ccccc6)cc5)CC3)CC2)C4)C(=O)N1 (stereo partly drawn) [E 284, 3-(6-(1-((1-(4-((1R,2S)-6-hydroxy-2-phenyl-1,2,3,4-tetrahydronaphthalen-1-yl)phenyl)piperidin-4-yl)methyl)piperidine-4-carbonyl)-1-oxo-3,5,6,7-tetrahydropyrrolo[3,4-f]isoindol-2(1H)-yl)piperidine-2,6-dione] | > 100
3 | O=C1CCC(N2C(=O)c3cc4c(cc3C2=O)CN(C2CCN(CC3(F)CN(c5ccc([C@@H]6c7ccc(O)cc7CC[C@@H]6c6ccccc6)cc5)C3)CC2)C4)C(=O)N1 (stereo partly drawn) [E 285, 2-(2,6-dioxopiperidin-3-yl)-6-(1-((3-fluoro-1-(4-((1R,2S)-6-hydroxy-2-phenyl-1,2,3,4-tetrahydronaphthalen-1-yl)phenyl)azetidin-3-yl)methyl)piperidin-4-yl)-6,7-dihydropyrrolo[3,4-f]isoindole-1,3(2H,5H)-dione] | > 100
4 | O=C1CCC(N2C(=O)c3cc4c(cc3C2=O)CN(CC2CCN(CC3(F)CN(c5ccc([C@@H]6c7ccc(O)cc7CC[C@@H]6c6ccccc6)cc5)C3)CC2)C4)C(=O)N1 (stereo partly drawn) [E 286, 2-(2,6-dioxopiperidin-3-yl)-6-((1-((3-fluoro-1-(4-((1R,2S)-6-hydroxy-2-phenyl-1,2,3,4-tetrahydronaphthalen-1-yl)phenyl)azetidin-3-yl)methyl)piperidin-4-yl)methyl)-6,7-dihydropyrrolo[3,4-f]isoindole-1,3(2H,5H)-dione] | > 100
5 | CN(C1CCC(CN2Cc3cc4c(cc3C2)C(=O)N(C2CCC(=O)NC2=O)C4=O)CC1)C1CCN(c2ccc([C@@H]3c4ccc(O)cc4CC[C@@H]3c3ccccc3)cc2)CC1 (stereo partly drawn) [E 289, 2-(2,6-dioxopiperidin-3-yl)-6-((4-((1-(4-((1R,2S)-6-hydroxy-2-phenyl-1,2,3,4-tetrahydronaphthalen-1-yl)phenyl)piperidin-4-yl)(methyl)amino)cyclohexyl)methyl)-6,7-dihydropyrrolo[3,4-f]isoindole-1,3(2H,5H)-dione] | > 100
6 | O=C1CCC(N2C(=O)c3cc4c(cc3C2=O)CN(C2CCC(C(=O)N3CCN(c5ccc([C@@H]6c7ccc(O)cc7CC[C@@H]6c6ccccc6)cc5)CC3)CC2)C4)C(=O)N1 (stereo partly drawn) [E 291, 2-(2,6-dioxopiperidin-3-yl)-6-(4-(4-(4-((1R,2S)-6-hydroxy-2-phenyl-1,2,3,4-tetrahydronaphthalen-1-yl)phenyl)piperazine-1-carbonyl)cyclohexyl)-6,7-dihydropyrrolo[3,4-f]isoindole-1,3(2H,5H)-dione] | > 100
7 | C[C@@H]1Cc2c([nH]c3ccccc23)[C@@H](c2ccc(N3CCC4(CCN(CC(=O)N5Cc6cc7c(cc6C5)C(=O)N(C5CCC(=O)NC5=O)C7=O)CC4)CC3)cn2)N1CC(F)F (stereo partly drawn) [E 292, 6-(2-(9-(6-((1S,3R)-2-(2,2-difluoroethyl)-3-methyl-2,3,4,9-tetrahydro-1H-pyrido[3,4-b]indol-1-yl)pyridin-3-yl)-3,9-diazaspiro[5.5]undecan-3-yl)acetyl)-2-(2,6-dioxopiperidin-3-yl)-6,7-dihydropyrrolo[3,4-f]isoindole-1,3(2H,5H)-dione] | > 100
8 | O=C1CCC(N2Cc3cc4c(cc3C2=O)CN(C2CCN(CC3CN(c5ccc([C@@H]6c7ccc(O)cc7CC[C@@H]6c6ccccc6)cc5)C3)CC2)C4)C(=O)N1 (stereo partly drawn) [E 294, 3-(6-(1-((1-(4-((1R,2S)-6-hydroxy-2-phenyl-1,2,3,4-tetrahydronaphthalen-1-yl)phenyl)azetidin-3-yl)methyl)piperidin-4-yl)-1-oxo-3,5,6,7-tetrahydropyrrolo[3,4-f]isoindol-2(1H)-yl)piperidine-2,6-dione] | > 100
9 | O=C1CCC(N2C(=O)c3cc4c(cc3C2=O)CN(C(=O)C2CCN(CC3CN(c5ccc([C@@H]6c7ccc(O)cc7CC[C@@H]6c6ccccc6)cc5)C3)CC2)C4)C(=O)N1 (stereo partly drawn) [E 295, 2-(2,6-dioxopiperidin-3-yl)-6-(1-((1-(4-((1R,2S)-6-hydroxy-2-phenyl-1,2,3,4-tetrahydronaphthalen-1-yl)phenyl)azetidin-3-yl)methyl)piperidine-4-carbonyl)-6,7-dihydropyrrolo[3,4-f]isoindole-1,3(2H,5H)-dione] | > 100
10 | O=C1CCC(N2Cc3cc4c(cc3C2=O)CN(C(=O)C2CCN(CC3CN(c5ccc([C@@H]6c7ccc(O)cc7CC[C@@H]6c6ccccc6)cc5)C3)CC2)C4)C(=O)N1 (stereo partly drawn) [E 296, 3-(6-(1-((1-(4-((1R,2S)-6-hydroxy-2-phenyl-1,2,3,4-tetrahydronaphthalen-1-yl)phenyl)azetidin-3-yl)methyl)piperidine-4-carbonyl)-1-oxo-3,5,6,7-tetrahydropyrrolo[3,4-f]isoindol-2(1H)-yl)piperidine-2,6-dione] | > 100
11 | O=C1CCC(N2C(=O)c3cc4c(cc3C2=O)CN(C2CCC(NC3CCN(c5ccc([C@@H]6c7ccc(O)cc7CC[C@@H]6c6ccccc6)cc5)CC3)CC2)C4)C(=O)N1 (stereo partly drawn) [E 303, 2-(2,6-dioxopiperidin-3-yl)-6-(4-((1-(4-((1R,2S)-6-hydroxy-2-phenyl-1,2,3,4-tetrahydronaphthalen-1-yl)phenyl)piperidin-4-yl)amino)cyclohexyl)-6,7-dihydropyrrolo[3,4-f]isoindole-1,3(2H,5H)-dione] | > 100

Further lines, results first:

Row | DC50 [nM] | Compound
12 | > 100 | C[C@@H]1Cc2c([nH]c3ccccc23)[C@@H](c2c(F)cc(C3CCC(CN4CCC(N5Cc6cc7c(cc6C5)C(=O)N(C5CCC(=O)NC5=O)C7=O)CC4)CC3)cc2F)N1CC(F)F (stereo partly drawn) [E 282, 6-(1-((4-(4-((1R,3R)-2-(2,2-difluoroethyl)-3-methyl-2,3,4,9-tetrahydro-1H-pyrido[3,4-b]indol-1-yl)-3,5-difluorophenyl)cyclohexyl)methyl)piperidin-4-yl)-2-(2,6-dioxopiperidin-3-yl)-6,7-dihydropyrrolo[3,4-f]isoindole-1,3(2H,5H)-dione]
13 | 10 to 100 | O=C1CCC(N2C(=O)c3cc4c(cc3C2=O)CN(C2CCC(CN3CCN(c5ccc([C@@H]6c7ccc(O)cc7CC[C@@H]6c6ccccc6)cc5)CC3)CC2)C4)C(=O)N1 (stereo partly drawn) [E 290, 2-(2,6-dioxopiperidin-3-yl)-6-(4-((4-(4-((1R,2S)-6-hydroxy-2-phenyl-1,2,3,4-tetrahydronaphthalen-1-yl)phenyl)piperazin-1-yl)methyl)cyclohexyl)-6,7-dihydropyrrolo[3,4-f]isoindole-1,3(2H,5H)-dione]
14 | 10 to 100 | C[C@@H]1Cc2c([nH]c3ccccc23)[C@@H](c2ccc(N3CCC4(CCN(C(=O)CN5Cc6cc7c(cc6C5)C(=O)N(C5CCC(=O)NC5=O)C7=O)CC4)CC3)cc2F)N1CC(F)F (stereo partly drawn) [E 293, 6-(2-(9-(4-((1R,3R)-2-(2,2-difluoroethyl)-3-methyl-2,3,4,9-tetrahydro-1H-pyrido[3,4-b]indol-1-yl)-3-fluorophenyl)-3,9-diazaspiro[5.5]undecan-3-yl)-2-oxoethyl)-2-(2,6-dioxopiperidin-3-yl)-6,7-dihydropyrrolo[3,4-f]isoindole-1,3(2H,5H)-dione]
15 | 10 to 100 | O=C1CCC(N2C(=O)c3cc4c(cc3C2=O)CN(CC2CCC(N3CCN(c5ccc([C@@H]6c7ccc(O)cc7CC[C@@H]6c6ccccc6)cc5)CC3)CC2)C4)C(=O)N1 (stereo partly drawn) [E 299, 2-(2,6-dioxopiperidin-3-yl)-6-((4-(4-(4-((1R,2S)-6-hydroxy-2-phenyl-1,2,3,4-tetrahydronaphthalen-1-yl)phenyl)piperazin-1-yl)cyclohexyl)methyl)-6,7-dihydropyrrolo[3,4-f]isoindole-1,3(2H,5H)-dione]
16 | 10 to 100 | C[C@@H]1Cc2cc(O)ccc2[C@@H](c2ccc(N3CCC4(CCN(C(=O)CN5Cc6cc7c(cc6C5)C(=O)N(C5CCC(=O)NC5=O)C7=O)CC4)CC3)cc2)N1CC(F)F (stereo partly drawn) [E 301, 6-(2-(9-(4-((1R,3R)-2-(2,2-difluoroethyl)-6-hydroxy-3-methyl-1,2,3,4-tetrahydroisoquinolin-1-yl)phenyl)-3,9-diazaspiro[5.5]undecan-3-yl)-2-oxoethyl)-2-(2,6-dioxopiperidin-3-yl)-6,7-dihydropyrrolo[3,4-f]isoindole-1,3(2H,5H)-dione]
17 | < 10 | C[C@@H]1Cc2c([nH]c3ccccc23)[C@@H](c2ccc(N3CCC(C(=O)N4CCC(N5Cc6cc7c(cc6C5)C(=O)N(C5CCC(=O)NC5=O)C7=O)CC4)CC3)cc2F)N1CC(F)F (stereo partly drawn) [E 302, 6-(1-(1-(4-((1R,3R)-2-(2,2-difluoroethyl)-3-methyl-2,3,4,9-tetrahydro-1H-pyrido[3,4-b]indol-1-yl)-3-fluorophenyl)piperidine-4-carbonyl)piperidin-4-yl)-2-(2,6-dioxopiperidin-3-yl)-6,7-dihydropyrrolo[3,4-f]isoindole-1,3(2H,5H)-dione]
